Data set [1] has as its system MCF7. As to the kind of experiment: Induction of apoptosis in human MCF7 cells assessed as increase in intracellular ROS generation at 1 times IC50 measured after 0 to 360 mins by DCFH-DA staining based analysis. Format: functional, cell-based. Particulars: time 0-360 min.
The nature of data set [2]: Toxicity in female Balb/c mouse implanted with mouse 4T1 cells assessed as pathological changes in liver at 12 micromol/kg, ip administered every other day for 2 weeks by H and E staining based analysis. It counts as organism-based. Particulars: in vivo, 336 h, dose 12 µmol/kg.
The test system of data set [3] is HeLa. As to the kind of experiment: Cytotoxicity against human HeLa cells assessed as inhibition of cell growth incubated for 1 hr by MTT assay. It counts as functional, cell-based.
Data set [4] deals with Cell membrane. Nature of the data set: Disruption of cell membrane integrity in human MCF7 cells assessed as increase in PI fluorescence measured after 1 hr by laser confocal scanning microscopic analysis. It counts as cell membranes.
The nature of data set [5]: Acute toxicity in female Balb/c mouse assessed as lung damage at approximately LD50 administered as single ip dose by H and E staining based analysis. Format: organism-based. Particulars: in vivo.
A short description of data set [6]: Stability in mouse serum assessed as half life at 10 mM incubated for 12 hrs by RP-HPLC analysis. It counts as ADME, cell-free.
Data set [7] deals with 4T1. As to the kind of experiment: Antitumor activity against mouse 4T1 cells implanted in female Balb/c mouse assessed as reduction in tumor growth at 12 micromol/kg, ip administered every other day for 2 weeks and measured every 2 days. Format: functional, organism-based. Particulars: dose 12.0 µmol/kg.
A short description of data set [8]: Acute toxicity in female Balb/c mouse assessed as reduction in survival rate at 65 to 110 mg/kg, ip administered as single dose and measured for 7 days. It counts as organism-based. Particulars: in vivo, 168 h, dose 65-110 mg/kg, time 7 day.
The subject of data set [9] is Cell membrane. Nature of the data set: Disruption of cell membrane in human MCF7 cells assessed as LDH release at 2.5 to 40 uM incubated for 1 hr by fluorescence based microplate reader analysis. Format: cell membranes. Particulars: dose 2.5-40 µM. A general note: Release of lactate dehydrogenase indicates damage to the cell membrane.
Data set [10] in a line: Toxicity in female Balb/c mouse implanted with mouse 4T1 cells assessed as pathological changes in heart at 12 micromol/kg, ip administered every other day for 2 weeks by H and E staining based analysis. It counts as organism-based. Particulars: in vivo, 336 h, dose 12 µmol/kg.
Data set [11] is described as follows: Toxicity in female Balb/c mouse implanted with mouse 4T1 cells assessed as animal death at 12 micromol/kg, ip administered every other day for 2 weeks. Format: organism-based. Particulars: in vivo, 336 h, dose 12 µmol/kg.
A short description of data set [12]: Stability in mouse serum assessed as compound remaining at 10 mM incubated for 12 hrs by RP-HPLC analysis. Format: ADME, cell-free. Particulars: read-out: Stability.
Data set [13] deals with Cell membrane. As to the kind of experiment: Induction of cell membrane damage in human MCF7 cells assessed as nucleic acid leakage at 1 to 2 times IC50 measured after 0.5 to 6 hrs by UV based analysis. Format: cell membranes. Particulars: time 0.5-6 hrs.
Data set [14] is described as follows: Acute toxicity in female Balb/c mouse assessed as heart damage at approximately LD50 administered as single ip dose by H and E staining based analysis. Format: organism-based. Particulars: in vivo.
The nature of data set [15]: Acute toxicity in female Balb/c mouse assessed as cellular swelling in spleen at approximately LD50 administered as single ip dose by H and E staining based analysis. It counts as organism-based. Particulars: in vivo.
Data set [16] deals with Cell membrane. Nature of the data set: Disruption of cell membrane integrity in human MCF7 cells assessed as increase in PI fluorescence at 1 times IC50 by laser confocal scanning microscopic analysis. Particulars: time 0-120 min, TDE = time-dependent effect.
The nature of data set [17]: Acute toxicity in female Balb/c mouse assessed as reduction in survival rate at 50 mg/kg, ip administered as single dose and measured for 7 days. Particulars: in vivo, 168 h, time 7 day. Format: organism-based.
Data set [18] can be described thus: Acute toxicity in female Balb/c mouse assessed as reduction in survival rate at 37 to 55 mg/kg, ip administered as single dose and measured for 7 days. Particulars: in vivo, 168 h, dose 37-55 mg/kg, time 7 day. It counts as organism-based.
A short description of data set [19]: Acute toxicity in female Balb/c mouse assessed as necrosis in kidney at approximately LD50 administered as single ip dose by H and E staining based analysis. Format: organism-based. Particulars: in vivo.
The nature of data set [20]: Acute toxicity in female Balb/c mouse assessed as reduction in survival rate at 37 mg/kg, ip administered as single dose and measured for 7 days. It counts as organism-based. Particulars: in vivo, 168 h, time 7 day.
Data set [21] can be described thus: Acute toxicity in female Balb/c mouse assessed as shrinking cytoplasm in kidney at approximately LD50 administered as single ip dose by H and E staining based analysis. Format: organism-based. Particulars: in vivo.
A short description of data set [22]: Acute toxicity in female Balb/c mouse assessed as reduction in survival rate at 65 mg/kg, ip administered as single dose and measured for 7 days. It counts as organism-based. Particulars: in vivo, 168 h, time 7 day.
Data set [23] relates to 4T1. Nature of the data set: Antitumor activity against mouse 4T1 cells implanted in female Balb/c mouse assessed as increase in tumor cell lysis at 12 micromol/kg, ip administered every other day for 2 weeks by H and E staining based analysis. Format: functional, organism-based. Particulars: dose 12.0 µmol/kg.
Data set [24] deals with 4T1. As to the kind of experiment: Antitumor activity against mouse 4T1 cells implanted in female Balb/c mouse assessed as nucleus contraction at 12 micromol/kg, ip administered every other day for 2 weeks by H and E staining based analysis. Particulars: dose 12.0 µmol/kg. Format: functional, organism-based.
The nature of data set [25]: Acute toxicity in female Balb/c mouse assessed as reduction in survival rate at 82 to 130 mg/kg, ip administered as single dose and measured for 7 days. Format: organism-based. Particulars: in vivo, 168 h, dose 82-130 mg/kg, time 7 day.

From ChEMBL document CHEMBL5584231, “Rational design of a new short anticancer peptide with good potential for cancer treatment” (Eur J Med Chem, 2024) come the findings set out here.

Activity calls are given as the source filed them. No cut-off for these calls is given here. Non-standard residues stand in square brackets, D forms with d. Residues, ends and D or L forms follow the SMILES beside them. Aad = N[C@@H](CCCC(=O)O)C(=O)O

Turning to `CC(C)C[C@H](NC(=O)[C@H](CCCCN)NC(=O)[C@H](CCCCN)NC(=O)[C@H](CC(C)C)NC(=O)[C@H](CC(C)C)NC(=O)[C@H](CCCCN)NC(=O)[C@H](CCCCN)NC(=O)[C@H](CC(C)C)NC(=O)[C@H](CC(C)C)NC(=O)[C@H](CCCCN)NC(=O)[C@H](CCCCN)NC(=O)[C@H](CC(C)C)NC(=O)[C@@H](N)CC(C)C)C(=O)N[C@@H](CCC(=O)O)C(N)=O` (H-LLKKLLKKLLKKLE-NH2), the result in [1], in [7], in [9] and in data set [13] was Active. Moreover, the Activity result in data set [2] was “Non-Toxic”; in data set [4] it was “Dose-Dependent Effect”; in [5], “Non-Toxic”; in data set [8], “Toxic”; in data set [10], “Non-Toxic”; in data set [11], “Non-Toxic”. Moreover, the Activity result in [14] is “Non-Toxic”; in [15], “Toxic”; in data set [16], “Tde”; in data set [17] it was “Non-Toxic”. Besides, in data set [3], the IC50 came to 9.46 µM. Also, the half-life at 10000 µM in [6] is 7.78 h. Besides, the remaining at 12 h, 10000 µM in data set [12] amounted to 28.6%.
Turning to `CC(C)C[C@H](NC(=O)[C@H](CC(C)C)NC(=O)[C@H](CCCCN)NC(=O)[C@H](CCCCN)NC(=O)[C@H](CC(C)C)NC(=O)[C@H](CC(C)C)NC(=O)[C@H](CCCCN)NC(=O)[C@H](CCCCN)NC(=O)[C@H](CC(C)C)NC(=O)[C@H](CC(C)C)NC(=O)[C@H](CCCCN)NC(=O)[C@H](CCCCN)NC(=O)[C@H](CC(C)C)NC(=O)[C@@H](N)CC(C)C)C(N)=O` (H-LLKKLLKKLLKKLL-NH2), the outcome in data set [1], in data set [7], in data set [9] and in [13] was Active. Also, the Activity result in data set [2] is “Non-Toxic”; in data set [4], “Dose-Dependent Effect”; in data set [5], “Non-Toxic”; in data set [10], “Non-Toxic”; in data set [18], “Toxic”; in data set [11] it was “Non-Toxic”. The Activity result in data set [14] was “Non-Toxic”; in [19], “Toxic”; in data set [15] it was “Toxic”; in data set [16], “Tde”; in data set [20], “Non-Toxic”; in data set [21] it was “Toxic”. The IC50 in data set [3] was 5.91 µM. Moreover, in [6], the half-life at 10000 µM is 11.1 h. For the same compound, in data set [12], the remaining at 12 h, 10000 µM was determined as 45.6%.
Turning to `CC(C)C[C@H](NC(=O)[C@H](CCCCN)NC(=O)[C@H](CCCCN)NC(=O)[C@H](CC(C)C)NC(=O)[C@H](CC(C)C)NC(=O)[C@H](CCCCN)NC(=O)[C@H](CCCCN)NC(=O)[C@H](CC(C)C)NC(=O)[C@H](CC(C)C)NC(=O)[C@H](CCCCN)NC(=O)[C@H](CCCCN)NC(=O)[C@H](CC(C)C)NC(=O)[C@@H](N)CC(C)C)C(=O)N[C@@H](CCCC(=O)O)C(N)=O` (H-LLKKLLKKLLKKL[Aad]-NH2), the Activity entry is “Non-Toxic” in [22]; “Non-Toxic” in [2]; “Dose-Dependent Effect” in data set [4]; “Non-Toxic” in data set [5]; “Non-Toxic” in [10]; “Non-Toxic” in data set [11]. For the same compound, the Activity entry in data set [14] was “Non-Toxic”; in data set [15], “Toxic”; in data set [16], “Tde”; in data set [25], “Toxic”. Besides, the outcome in data set [1], in data set [23], in [7], in [9], in data set [13] and in [24] was Active. Moreover, the IC50 in data set [3] turned out to be 7.15 µM. Moreover, the half-life at 10000 µM in data set [6] is 7.6 h. The remaining at 12 h, 10000 µM in [12] is 31.6%.

As a reminder, the IC50 is the concentration that inhibits the measured activity by half. The term half-life denotes the time in which the quantity being followed falls by half.
